Assay results taken from patent US20170087180A1, “METHODS AND COMPOSITIONS FOR TREATING NITRIC OXIDE DEFICIENCY DISORDERS AND RELATED CONDITIONS” (Sulfagenix, Inc., priority 2014, published 2017).

Tested on: men with oligoasthenozoospermia
Test: placebo-controlled randomized study of SG1002 compared to resveratrol in men with oligoasthenozoospermia
Assay type: in vivo
Settings: SG1002 500 mg daily, resveratrol 50 mg daily, 54 men
Experimental: There was one placebo-controlled randomized study of SG1002,500 mg daily compared to resveratrol 50 mg daily in 54 men with oligoasthenozoospermia. Men treated with SG1002 had increased sperm concentration, motility and motile forms recovery compared to those treated with placebo. Resveratrol had no effect on any of these parameters. During the study, three men in the SG1002 arm withdrew: one due to excessive flatulence and nausea, one due to “smelly” sweating, and one for convenience.

Oc1ccc(C=Cc2cc(O)cc(O)c2)cc1 [Resveratrol, resveratrol]
no effect: motile forms recovery | sperm concentration | sperm motility
